“Also recorded” adds a separate entry of the source. Read-outs that look alike come from different tables or passages of the source.
Experiments:
MC65 cells [1] = assay: Neuroprotection assay in MC65 cells (−TC, MTT)
Experimental: MC65 cells were washed twice with PBS, resuspended in Opti-MEM, and seeded in 96-well plates (4×10^4 cells/well). Indicated compounds were then added, and cells were incubated at 37° C. under +TC or −TC conditions for 72 h. Then, 10 μL of MTT (5 mg/mL in PBS) were added and the cells were incubated for another 4 h. Cell medium was then removed, and the remaining formazan crystals produced by the cellular reduction of MTT were dissolved in DMSO. Absorbance at 570 nm was immediately recorded using a FlexStation® 3 plate reader (Molecular Devices, CA).

[2] = tested on: intracellular oxidative stress in MC65 cells; assay: ROS production assay in MC65 cells (DCFH-DA); format: cell-based; details: −TC, 48 h, DCFH-DA 25 μM, read-out: IC50 for suppression of intracellular oxidative stress
Experimental: Cells were harvested, washed twice with cold PBS, then suspended in PBS and incubated with DCFH-DA (25 μM) in dark for 1 h. Fluorescence was analyzed by flow cytometry using a Millipore Guava® easyCyte flow cytometer.

HT22 cells = assay: Hydrogen peroxide toxicity assay in HT22 cells; format: cell-based, mouse; details: up to 0.3 μM, H2O2 500 μM, 24 h
Experimental: HT22 cells were seeded in 96-well plates (4×10^3 cells/well) in growth medium and incubated for 24 h at 37° C. The medium was removed and compounds were added at the indicated concentrations in fresh growth medium, and the cells were incubated for another 1 h. H2O2 was then added at a final concentration of 500 μM, and the plates were then incubated for 24 h. Cell viability was assessed by MTT assay as previously described. Values were expressed as a percentage relative to the negative (H2O2-free) control.

MC65 cells [3] = assay: Rotenone protection assay in MC65 cells; format: cell-based; details: up to 1 μM, rotenone 10 μM, 48 h
Experimental: The medium was removed and compounds were added at the indicated concentrations in fresh growth medium, and the cells were incubated for another 2 h. Rotenone was then added at a final concentration of 10 μM, and the plates were then incubated for 48 h. Cell viability was assessed by MTT assay.

[4] = In vivo BBB penetration experiment, LC-MS/MS of plasma and brain; design: species or system CD-1 male mice
Experimental: Briefly, ten week old CD-1 male mice were purchased from Harlan Laboratories (Frederich, Md.). Compound 9 was diluted to a concentration of 15 mg/mL in a solution with 2% DMSO and 10% Cremophor in PBS, and was administered via oral gavage at a final dosage of 50 mg/kg. Two groups of mice (n=6/group) were used to determine the plasma and brain concentrations of the compound at various time-points. […] Afterwards, the right atrium was removed to allow exsanguination, and the left ventricular apex was cannulated with a 24 G needle and perfused with 30 mL of warm (37° C.) heparinized normal saline solution to enable perfusion of all the organs and complete blood washout. The perfused brains were then collected, rapidly washed in normal saline, blot-dried, and frozen in liquid nitrogen. Brain samples were then analyzed by the LC-MS/MS.
For brain samples, half a brain was weighed and diluted with 1.0 mL of acetonitrile and then mixed well. For plasma samples, 0.01 mL of plasma was diluted with 0.99 mL of acetonitrile and then mixed well. After mixing, samples were centrifuged at 15,000 rpm and the supernatant was transferred to a new tube and evaporated to dryness using spin vacuum. The samples were then reconstituted with an 80:20 solution of 1% acetic acid in acetonitrile: 1% acetic acid in water, and a volume of 0.025 mL was then injected into the LC-MS/MS. The LC/MS/MS method employed positive electrospray ionization (ESI) with a selected reaction monitoring (SRM) mode. Compound 9 was monitored using the following SRM transitions: 381→174, 130, and 159. Chromatographic separation was achieved under gradient conditions using a Waters Acquity® UPLC, with a reversed phase column (Gemini 5u C18 110 Å, 100 mm×2.0 mm; 5 um, Phenomenex Inc., Torrance, Calif.) with a mobile phase composition of 1% acetic acid in water (mobile phase A) and 1% acetic acid in acetonitrile (mobile phase B). The initial gradient consisted of 30% B for 1 min, 30% to 95% B from 1 to 3 min, hold for 1 min at 95% B, and then equilibrate at 30% B for 2.5 min. The total run time was 6.5 min. Results were processed using Analyst 1.5.2 software. Absolute recovery, precision and accuracy, and matrix effects experiments produced an efficient method to continue sample analysis. Calibration curves were made with freshly prepared samples and calculated using peak area versus concentration with a linear or quadratic regression. Accuracy fell in the range of 85% to 115%.
To accurately quantify the amount of 7 that is delivered into brain tissue and rule out the possibility of biased interpretation from vascular trapping, we perfused the mice to wash out the vascular blood completely prior to collecting brain tissues. After oral administration, plasma samples were collected at 0.25, 0.5, 1, and 24 hours, and brain samples were collected at 1 and 24 hours.

Which “neuroprotection of MC65 cells from −TC induced cell death” value (MC65 cells [1]; 0.3 μM, −TC, 72 h, MTT) does the source give for `COc1ccc2[nH]cc(CCNC(=O)CC(=O)CCc3ccc(O)cc3)c2c1` [Compound 7, 5-(4-hydroxy-phenyl)-3-oxo-pentanoic acid [2-(5-methoxy-1H-indol-3-yl)-ethyl]-amide] here?
Its value is “significant and comparable protection”.

And the EC50 (MC65 cells [1]; MC65, 72 h, read-out: EC50 for neuroprotection of MC65 cells)?
The EC50 was 27.6 ± 9.4 nM.

What about the IC50 [2] of the same molecule?
Its IC50 is roughly 68 nM.

What about the “protection from H2O2-induced cytotoxicity” value (HT22 cells) of the same molecule?
The value was “no protection”.

What about the “protection from rotenone-induced cytotoxicity” value (MC65 cells [3]) of the same molecule?
The value was “did not show protection”.

And the concentration at 1 h ([4]; male, CD-1, mouse, brain, po, 50 mg/kg, perfused mice, n = 6, 1 h, read-out: Brain concentration, 1 h)?
Its concentration at 1 h is 555 ± 188 nM.

And the concentration at 24 h ([4]; male, CD-1, mouse, brain, po, 50 mg/kg, perfused mice, n = 6, 24 h, read-out: Brain concentration, 24 h)?
Its concentration at 24 h is 47.4 ± 11.2 nM.

What about the concentration at 15 min ([4]; male, CD-1, mouse, plasma, po, 50 mg/kg, mice, n = 6, 15 min) of the same molecule?
Its concentration at 15 min is 773 ± 310 nM.

And the concentration at 30 min ([4]; male, CD-1, mouse, plasma, po, 50 mg/kg, mice, n = 6, 30 min)?
The concentration at 30 min was 795 ± 301 nM.

What about the concentration at 1 h ([4]; male, CD-1, mouse, plasma, po, 50 mg/kg, mice, n = 6, 1 h, read-out: Plasma concentration, 1 h) of the same molecule?
The concentration at 1 h was 883 ± 350 nM.

And the concentration at 24 h ([4]; male, CD-1, mouse, plasma, po, 50 mg/kg, mice, n = 6, 24 h, read-out: Plasma concentration, 24 h)?
The concentration at 24 h was 30.5 ± 12 nM.

What about the “BBB penetration after oral administration” value ([4]; oral 50 mg/kg, mice) of the same molecule?
The value was “confirmed to cross the blood-brain barrier; also recorded: confirming its BBB permeability”.

And the “Plasma concentration, 15 min” value ([4]; oral 50 mg/kg, mice, n = 6, 15 min)?
Its value is 773.80 ± 309.86 nM.

What about the “Plasma concentration, 1 h” value ([4]; oral 50 mg/kg, mice, n = 6, 1 h) of the same molecule?
Its value is 883.12 ± 350.36 nM.

And the “Plasma concentration, 24 h” value ([4]; oral 50 mg/kg, mice, n = 6, 24 h)?
The value was 30.53 ± 11.96 nM.

And the “Brain concentration, 1 h” value ([4]; oral 50 mg/kg, perfused mice, n = 6, 1 h)?
Its value is 555.40 ± 188.44 nM.

What about the “Brain concentration, 24 h” value ([4]; oral 50 mg/kg, perfused mice, n = 6, 24 h) of the same molecule?
Its value is 47.41 ± 11.19 nM.

— patent US9738605B2, “Hybrid compounds of curcumin and melatonin as neuroprotectants for neurodegenerative disorders” (VIRGINIA COMMONWEALTH UNIVERSITY, priority 2013, dated 2017)
